ChEMBL document CHEMBL5543067, “Advances in nitric oxide regulators for the treatment of ischemic stroke” (Eur J Med Chem, 2023)
Values after ≈ are worked out from the molar mass of the structure shown. Each block holds one molecule with its values, some of them ahead of it.

How the values were obtained:
[1] = molecular target: Nitric oxide synthase 1 (Rattus norvegicus, UniProt P29476); experiment: Inhibition of rat cerebellum nNOS; assay type: tissue-based
[2] = molecular target: T1, Nitric oxide synthase 3 (Homo sapiens, UniProt P29474); experiment: Inhibition of human Endothelial cells eNOS; assay type: cell-based, Endothelial cell
T1 sequence (P29474 whole entry): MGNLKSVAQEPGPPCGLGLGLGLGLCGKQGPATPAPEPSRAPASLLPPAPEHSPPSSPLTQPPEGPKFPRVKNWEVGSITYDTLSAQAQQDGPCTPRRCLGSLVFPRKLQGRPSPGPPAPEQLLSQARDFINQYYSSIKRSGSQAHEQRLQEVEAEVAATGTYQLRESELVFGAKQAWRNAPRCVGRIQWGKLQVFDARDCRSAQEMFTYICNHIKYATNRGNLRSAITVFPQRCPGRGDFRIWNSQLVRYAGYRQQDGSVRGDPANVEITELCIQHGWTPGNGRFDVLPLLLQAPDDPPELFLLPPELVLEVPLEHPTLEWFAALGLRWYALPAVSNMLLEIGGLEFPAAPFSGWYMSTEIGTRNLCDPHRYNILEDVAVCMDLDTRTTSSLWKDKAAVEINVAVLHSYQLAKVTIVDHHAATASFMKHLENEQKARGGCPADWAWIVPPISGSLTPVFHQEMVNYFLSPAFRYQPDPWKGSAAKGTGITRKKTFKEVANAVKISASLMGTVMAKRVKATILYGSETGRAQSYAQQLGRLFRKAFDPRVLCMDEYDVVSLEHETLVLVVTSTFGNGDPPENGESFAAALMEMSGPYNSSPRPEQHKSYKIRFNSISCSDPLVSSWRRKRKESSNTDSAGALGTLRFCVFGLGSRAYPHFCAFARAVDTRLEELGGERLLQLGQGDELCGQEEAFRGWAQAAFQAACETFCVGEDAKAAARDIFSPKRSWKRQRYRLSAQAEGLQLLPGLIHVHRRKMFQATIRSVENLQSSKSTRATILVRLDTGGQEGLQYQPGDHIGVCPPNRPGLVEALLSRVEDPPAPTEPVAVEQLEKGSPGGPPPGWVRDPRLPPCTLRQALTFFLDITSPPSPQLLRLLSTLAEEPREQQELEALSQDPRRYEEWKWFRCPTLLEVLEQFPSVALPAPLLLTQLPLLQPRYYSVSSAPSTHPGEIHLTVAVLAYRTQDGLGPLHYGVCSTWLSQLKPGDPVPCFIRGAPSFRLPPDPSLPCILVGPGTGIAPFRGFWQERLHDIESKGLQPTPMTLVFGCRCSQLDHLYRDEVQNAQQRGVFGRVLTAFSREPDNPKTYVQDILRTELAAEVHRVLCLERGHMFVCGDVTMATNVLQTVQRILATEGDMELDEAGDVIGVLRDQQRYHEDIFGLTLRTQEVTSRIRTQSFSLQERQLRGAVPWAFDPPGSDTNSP

[3] = molecular target: T2, Nitric oxide synthase, inducible (Mus musculus, UniProt P29477); experiment: Inhibition of mouse iNOS in RAW264.7 cells; assay type: cell-based
T2 sequence (P29477 whole entry): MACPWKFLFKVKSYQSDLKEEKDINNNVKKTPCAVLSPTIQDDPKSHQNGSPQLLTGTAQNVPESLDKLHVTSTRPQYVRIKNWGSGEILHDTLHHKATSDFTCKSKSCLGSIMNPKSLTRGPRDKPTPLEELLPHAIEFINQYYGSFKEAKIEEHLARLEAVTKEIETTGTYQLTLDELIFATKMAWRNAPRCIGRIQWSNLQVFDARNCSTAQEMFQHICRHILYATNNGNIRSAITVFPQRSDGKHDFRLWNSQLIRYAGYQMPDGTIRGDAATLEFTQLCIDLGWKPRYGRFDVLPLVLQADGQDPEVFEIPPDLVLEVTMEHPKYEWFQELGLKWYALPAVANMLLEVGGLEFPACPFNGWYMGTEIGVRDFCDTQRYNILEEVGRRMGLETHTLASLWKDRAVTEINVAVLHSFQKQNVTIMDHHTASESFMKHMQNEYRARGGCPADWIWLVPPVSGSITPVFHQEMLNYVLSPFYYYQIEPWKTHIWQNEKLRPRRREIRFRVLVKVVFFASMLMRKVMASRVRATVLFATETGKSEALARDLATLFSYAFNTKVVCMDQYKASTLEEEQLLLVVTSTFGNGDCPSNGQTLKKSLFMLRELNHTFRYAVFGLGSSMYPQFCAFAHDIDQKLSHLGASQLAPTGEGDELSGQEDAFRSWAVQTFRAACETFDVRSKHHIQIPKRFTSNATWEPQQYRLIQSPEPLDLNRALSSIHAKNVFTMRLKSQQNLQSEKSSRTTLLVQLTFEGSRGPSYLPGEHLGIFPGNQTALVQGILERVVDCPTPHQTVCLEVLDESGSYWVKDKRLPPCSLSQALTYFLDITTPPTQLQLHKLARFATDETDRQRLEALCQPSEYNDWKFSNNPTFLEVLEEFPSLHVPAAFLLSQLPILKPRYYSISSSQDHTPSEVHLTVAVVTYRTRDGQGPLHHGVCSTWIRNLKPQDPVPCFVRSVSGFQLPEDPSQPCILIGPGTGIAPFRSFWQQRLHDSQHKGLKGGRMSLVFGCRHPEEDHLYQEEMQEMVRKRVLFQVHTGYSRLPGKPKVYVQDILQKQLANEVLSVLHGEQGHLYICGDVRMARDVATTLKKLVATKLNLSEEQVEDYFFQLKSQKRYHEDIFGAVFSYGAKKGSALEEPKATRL

[4] = molecular target: T3, Nitric oxide synthase 1 (Homo sapiens, UniProt P29475); experiment: Binding affinity to nNOS (unknown origin) assessed as inhibition constant
[5] = molecular target: Nitric oxide synthase, inducible (Homo sapiens, UniProt P35228); experiment: Binding affinity to iNOS (unknown origin) assessed as inhibition constant
[6] = molecular target: T1, Nitric oxide synthase 3; experiment: Binding affinity to eNOS (unknown origin) assessed as inhibition constant
[7] = Inhibition of NOS (unknown origin); parameters: species or system Homo sapiens
[8] = molecular target: Nitric oxide synthase 1 (Mus musculus, UniProt Q9Z0J4); experiment: Inhibition of mouse nNOS
[9] = molecular target: Nitric oxide synthase, inducible (Rattus norvegicus, UniProt Q06518); experiment: Inhibition of rat iNOS
[10] = molecular target: T4, Nitric oxide synthase 3 (Bos taurus, UniProt P29473); experiment: Inhibition of bovine eNOS
T4 sequence (P29473 whole entry): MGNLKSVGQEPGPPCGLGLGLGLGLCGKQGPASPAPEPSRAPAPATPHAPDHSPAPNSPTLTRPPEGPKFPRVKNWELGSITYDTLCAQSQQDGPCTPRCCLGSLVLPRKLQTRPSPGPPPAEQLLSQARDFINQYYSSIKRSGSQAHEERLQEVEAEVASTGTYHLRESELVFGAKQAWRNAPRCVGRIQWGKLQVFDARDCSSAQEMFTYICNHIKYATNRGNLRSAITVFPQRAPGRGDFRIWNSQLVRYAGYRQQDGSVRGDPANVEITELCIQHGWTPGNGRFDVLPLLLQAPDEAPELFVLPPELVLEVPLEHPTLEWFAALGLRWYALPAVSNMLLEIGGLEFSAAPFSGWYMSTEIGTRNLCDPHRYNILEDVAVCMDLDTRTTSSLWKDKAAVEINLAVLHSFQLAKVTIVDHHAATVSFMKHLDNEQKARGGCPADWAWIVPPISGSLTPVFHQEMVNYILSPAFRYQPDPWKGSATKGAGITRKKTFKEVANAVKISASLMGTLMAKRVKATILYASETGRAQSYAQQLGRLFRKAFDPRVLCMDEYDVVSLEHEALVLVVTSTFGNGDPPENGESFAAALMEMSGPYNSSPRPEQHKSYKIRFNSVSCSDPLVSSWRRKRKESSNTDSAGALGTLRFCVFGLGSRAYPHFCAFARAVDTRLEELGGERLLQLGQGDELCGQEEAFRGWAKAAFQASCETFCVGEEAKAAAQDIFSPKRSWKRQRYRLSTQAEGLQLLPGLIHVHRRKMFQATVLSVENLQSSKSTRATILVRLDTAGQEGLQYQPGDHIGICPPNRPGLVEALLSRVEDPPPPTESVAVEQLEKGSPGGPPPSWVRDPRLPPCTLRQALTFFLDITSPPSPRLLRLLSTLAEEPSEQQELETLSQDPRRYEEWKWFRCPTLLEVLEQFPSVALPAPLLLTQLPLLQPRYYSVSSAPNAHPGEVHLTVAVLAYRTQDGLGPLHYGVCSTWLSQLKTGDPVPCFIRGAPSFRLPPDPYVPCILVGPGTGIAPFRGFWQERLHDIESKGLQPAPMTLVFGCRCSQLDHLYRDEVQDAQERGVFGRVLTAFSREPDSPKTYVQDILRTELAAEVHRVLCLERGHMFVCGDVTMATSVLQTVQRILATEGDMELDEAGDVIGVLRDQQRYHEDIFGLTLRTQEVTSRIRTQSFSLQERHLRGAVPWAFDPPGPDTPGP

[11] = system: Platelet; experiment: Inhibition of ADP-induced platelet aggregation in New Zealand White rabbit; assay type: functional, cell-based; details: Oryctolagus cuniculus
[12] = system: Platelet; experiment: Inhibition of AA-induced platelet aggregation in New Zealand White rabbit; assay type: functional, cell-based; details: Oryctolagus cuniculus
[13] = Neuroprotective activity in rat hippocampal neuron cells assessed as NMDA-induced cGMP production; assay type: functional, cell-based; details: Hippocampal neurone
[14] = molecular target: T3, Nitric oxide synthase 1; experiment: Binding affinity to GST-tagged nNOS (unknown origin) expressed in Escherichia coli BL21 (DE3) assessed as change in enthalpy
[15] = Permeability of the compound across blood brain barrier at pH 7.4 at 12.5 uM incubated for 4 hrs by PAMPA assay; assay type: ADME; details: read-out: permeability
[16] = system: Platelet; experiment: Inhibition of ADP-induced platelet aggregation (unknown origin); assay type: functional, cell-based
[17] = Water solubility at pH 7.4; assay type: physicochemical

Sequence of Nitric oxide synthase 1 (Rattus norvegicus, UniProt P29476) (P29476 whole entry): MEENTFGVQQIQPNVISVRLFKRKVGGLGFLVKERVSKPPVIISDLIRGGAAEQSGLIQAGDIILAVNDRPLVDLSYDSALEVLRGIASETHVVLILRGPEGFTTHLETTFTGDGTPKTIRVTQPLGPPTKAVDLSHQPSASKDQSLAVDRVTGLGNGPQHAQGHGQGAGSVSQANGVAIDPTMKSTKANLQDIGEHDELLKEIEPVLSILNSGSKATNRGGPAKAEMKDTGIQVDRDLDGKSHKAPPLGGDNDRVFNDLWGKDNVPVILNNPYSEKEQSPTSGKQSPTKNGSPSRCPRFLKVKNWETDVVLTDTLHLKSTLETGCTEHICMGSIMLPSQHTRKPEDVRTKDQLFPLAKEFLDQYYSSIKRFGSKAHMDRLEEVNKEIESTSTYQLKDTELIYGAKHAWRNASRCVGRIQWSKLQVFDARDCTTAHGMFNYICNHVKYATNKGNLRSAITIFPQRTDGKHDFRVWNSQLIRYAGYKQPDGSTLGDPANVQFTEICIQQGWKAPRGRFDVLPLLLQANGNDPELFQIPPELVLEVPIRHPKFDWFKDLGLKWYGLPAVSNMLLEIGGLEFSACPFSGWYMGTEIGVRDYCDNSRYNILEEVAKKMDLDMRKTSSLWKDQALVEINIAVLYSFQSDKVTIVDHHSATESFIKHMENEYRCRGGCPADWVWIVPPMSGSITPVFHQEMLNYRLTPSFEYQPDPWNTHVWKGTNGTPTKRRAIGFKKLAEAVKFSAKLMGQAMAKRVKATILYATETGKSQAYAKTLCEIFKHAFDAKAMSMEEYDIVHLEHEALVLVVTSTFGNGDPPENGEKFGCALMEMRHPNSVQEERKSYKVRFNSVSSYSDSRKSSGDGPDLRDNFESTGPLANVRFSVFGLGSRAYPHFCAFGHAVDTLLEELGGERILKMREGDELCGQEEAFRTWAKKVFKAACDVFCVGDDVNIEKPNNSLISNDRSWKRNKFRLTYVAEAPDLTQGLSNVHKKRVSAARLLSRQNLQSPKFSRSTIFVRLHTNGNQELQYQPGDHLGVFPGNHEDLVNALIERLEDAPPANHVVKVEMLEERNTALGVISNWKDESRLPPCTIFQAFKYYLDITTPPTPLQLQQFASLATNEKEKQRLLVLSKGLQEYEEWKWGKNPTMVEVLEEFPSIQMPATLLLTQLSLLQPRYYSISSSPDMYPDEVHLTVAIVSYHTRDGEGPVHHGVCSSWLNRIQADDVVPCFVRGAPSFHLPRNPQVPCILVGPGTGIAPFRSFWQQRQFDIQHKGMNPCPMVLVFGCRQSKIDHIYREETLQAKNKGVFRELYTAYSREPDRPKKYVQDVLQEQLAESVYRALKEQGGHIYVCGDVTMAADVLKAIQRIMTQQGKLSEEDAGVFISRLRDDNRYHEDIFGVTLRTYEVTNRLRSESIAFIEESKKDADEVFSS
T3 sequence (P29475 whole entry): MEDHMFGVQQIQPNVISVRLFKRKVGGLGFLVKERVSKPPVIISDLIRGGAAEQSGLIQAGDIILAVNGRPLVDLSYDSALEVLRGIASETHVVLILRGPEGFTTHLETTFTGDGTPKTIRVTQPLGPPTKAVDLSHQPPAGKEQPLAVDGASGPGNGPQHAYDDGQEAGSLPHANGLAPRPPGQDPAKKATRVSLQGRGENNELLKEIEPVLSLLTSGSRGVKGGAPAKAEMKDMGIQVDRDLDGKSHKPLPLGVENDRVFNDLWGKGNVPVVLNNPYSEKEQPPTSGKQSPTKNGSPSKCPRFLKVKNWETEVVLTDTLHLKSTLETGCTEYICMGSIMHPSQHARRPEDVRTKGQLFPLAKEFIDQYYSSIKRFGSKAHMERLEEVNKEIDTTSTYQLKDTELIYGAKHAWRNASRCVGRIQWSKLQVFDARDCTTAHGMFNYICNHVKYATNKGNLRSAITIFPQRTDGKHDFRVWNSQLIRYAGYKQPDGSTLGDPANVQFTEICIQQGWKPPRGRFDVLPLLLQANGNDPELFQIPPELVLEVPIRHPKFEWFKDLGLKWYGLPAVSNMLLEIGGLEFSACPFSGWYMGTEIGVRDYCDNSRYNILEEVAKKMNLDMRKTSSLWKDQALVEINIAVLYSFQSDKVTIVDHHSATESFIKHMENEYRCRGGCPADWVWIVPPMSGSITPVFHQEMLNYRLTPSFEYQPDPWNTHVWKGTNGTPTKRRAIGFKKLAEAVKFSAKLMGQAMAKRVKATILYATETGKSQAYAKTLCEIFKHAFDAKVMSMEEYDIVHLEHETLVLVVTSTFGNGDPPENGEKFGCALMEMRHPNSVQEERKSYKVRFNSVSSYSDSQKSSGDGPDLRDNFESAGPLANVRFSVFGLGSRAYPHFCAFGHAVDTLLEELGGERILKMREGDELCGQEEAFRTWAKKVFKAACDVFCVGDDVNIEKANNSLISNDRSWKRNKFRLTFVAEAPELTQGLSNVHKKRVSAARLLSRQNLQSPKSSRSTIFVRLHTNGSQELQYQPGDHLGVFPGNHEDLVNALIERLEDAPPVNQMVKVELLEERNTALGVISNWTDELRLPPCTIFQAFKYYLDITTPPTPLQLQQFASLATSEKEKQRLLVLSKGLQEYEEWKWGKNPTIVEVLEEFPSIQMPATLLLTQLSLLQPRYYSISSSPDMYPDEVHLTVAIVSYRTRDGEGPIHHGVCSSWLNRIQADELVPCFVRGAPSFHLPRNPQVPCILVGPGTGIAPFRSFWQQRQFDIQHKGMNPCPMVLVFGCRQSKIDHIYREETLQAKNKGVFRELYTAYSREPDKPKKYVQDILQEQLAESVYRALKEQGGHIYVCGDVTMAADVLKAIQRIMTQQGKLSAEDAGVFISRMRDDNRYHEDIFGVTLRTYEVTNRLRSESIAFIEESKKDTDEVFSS
Sequence of Nitric oxide synthase, inducible (Rattus norvegicus, UniProt Q06518) (Q06518 whole entry): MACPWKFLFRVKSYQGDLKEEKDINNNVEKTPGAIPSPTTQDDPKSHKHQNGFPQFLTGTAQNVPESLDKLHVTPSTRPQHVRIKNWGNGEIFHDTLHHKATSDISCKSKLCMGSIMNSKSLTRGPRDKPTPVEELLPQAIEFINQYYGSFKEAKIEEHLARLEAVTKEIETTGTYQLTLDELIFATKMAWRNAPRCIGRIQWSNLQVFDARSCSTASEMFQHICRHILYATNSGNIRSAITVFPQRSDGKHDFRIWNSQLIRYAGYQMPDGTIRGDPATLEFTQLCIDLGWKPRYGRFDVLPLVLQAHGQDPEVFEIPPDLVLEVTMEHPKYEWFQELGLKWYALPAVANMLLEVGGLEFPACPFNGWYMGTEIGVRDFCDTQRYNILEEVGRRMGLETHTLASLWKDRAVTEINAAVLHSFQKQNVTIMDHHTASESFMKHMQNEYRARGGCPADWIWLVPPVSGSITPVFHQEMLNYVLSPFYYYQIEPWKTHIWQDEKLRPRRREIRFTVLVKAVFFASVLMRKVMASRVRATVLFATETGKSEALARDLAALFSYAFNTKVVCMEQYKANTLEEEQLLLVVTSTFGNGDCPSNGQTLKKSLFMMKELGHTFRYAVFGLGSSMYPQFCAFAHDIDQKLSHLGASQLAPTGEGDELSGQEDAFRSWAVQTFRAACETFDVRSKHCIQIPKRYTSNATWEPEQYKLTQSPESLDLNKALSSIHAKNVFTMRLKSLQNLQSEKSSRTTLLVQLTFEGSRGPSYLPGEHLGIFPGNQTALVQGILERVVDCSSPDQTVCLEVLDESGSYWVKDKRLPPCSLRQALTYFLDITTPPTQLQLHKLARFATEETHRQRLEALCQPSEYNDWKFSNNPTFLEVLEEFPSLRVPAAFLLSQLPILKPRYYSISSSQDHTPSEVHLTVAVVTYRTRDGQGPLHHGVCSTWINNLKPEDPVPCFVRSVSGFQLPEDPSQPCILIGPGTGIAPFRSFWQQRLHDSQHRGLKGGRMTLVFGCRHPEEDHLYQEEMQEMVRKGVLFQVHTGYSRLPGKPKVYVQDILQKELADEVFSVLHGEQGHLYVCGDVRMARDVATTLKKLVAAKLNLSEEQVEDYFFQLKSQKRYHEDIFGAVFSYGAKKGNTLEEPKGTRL

Structure (SMILES): CN1CCc2ccc(NC(=N)c3cccs3)cc2C1
IC50 [1]: 0.08 µM
IC50 [2]: 24 µM
IC50 [3]: 5 µM

Structure (SMILES): N=C(N)NN [PIMAGEDINE]
Ki [4]: 830 µM
Ki [5]: 16 µM
Ki [6]: > 8000 µM

Structure (SMILES): Cc1nc(C)c(COC(=O)c2cccc(OCCCCO[N+](=O)[O-])c2)nc1C
IC50 [11]: 0.734 µM
IC50 [12]: 0.556 µM

Structure (SMILES): N=C(Nc1ccc2c(c1)CNCC2)c1cccs1
IC50 [1]: 0.05 µM
IC50 [2]: 10 µM
IC50 [3]: 5.5 µM

Structure (SMILES): COC(=O)C[C@H](NC(=O)[C@@H](C)NCCC1CCCCC1)C(=O)N[C@H](C)C(=O)N[C@@H](C(=O)O)C(C)C
deltaH [14]: -1.67 kcal/mol
Papp at 4 h, 12.5 µM [15]: 6.07 ×10⁻⁶ cm/s

Structure (SMILES): CCCCC(OC(C)=O)c1ccccc1C(=O)O[C@H]1CO[C@H]2[C@@H]1OC[C@H]2OC(=O)NCCO[N+](=O)[O-] (stereo partly specified)
IC50 [16]: 0.44 µM
solubility [17]: 2.13 µM (≈ 1.09 µg/mL)

Structure (SMILES): COC(=O)[C@@H](N)CCCNC(=N)N[N+](=O)[O-] [L-NAME]
IC50 [7]: 70 µM

Now from value to molecule:

IC50 [7]: 0.71 µM
Structure (SMILES): O=[N+]([O-])c1cccc2cn[nH]c12 [7-NITROINDAZOLE]

IC50 [8]: 28.2 µM
IC50 [9]: 27 µM
IC50 [10]: 1060 µM
Structure (SMILES): FC(F)(F)c1ccccc1-n1ccnc1

IC50 [13]: 2.7 µM
Structure (SMILES): Oc1c(Cl)cc(Cl)cc1CNc1ccc2nn[nH]c2c1
